Earlier results on one compound are cited in patent publication US20240216329A1, “PUTRESCINE TOPICAL FORMULATIONS” (VIVIER CANADA INC., priority 2017, published 2024).

One data set concerns scar fibroblasts. The following applies: human harvested scars.
For data set [1], the system named is collagen cross-linking (fibroblast tissue transglutaminase). Conditions: in vitro and in vivo.

Consider `NCCCCN` [putrescine, 1,4-diaminobutane], for which the “barrier function of the epidermis” value in the data set with epidermis of eroded skin (eroded skin, topical) is “increasing its barrier function”. Also, the “thickness of the stratum lucidum / inner strata of epidermis” value with epidermis of eroded skin (stratum lucidum in animals, inner strata of human epidermis) is “increasing”. Moreover, the “apoptosis of scar fibroblasts” value in the data set on scar fibroblasts was “increase in apoptosis of scar fibroblasts”. Further, the collagen cross-linking result in data set [1] was “reduce collagen cross-linking”.
